Experimental data published in the NIST ThermoML archive (doi:10.1021/je060271a).

Settings: 283.15 K, Liquid, Vibrating tube method

CCCCC(=O)OCC(COC(=O)CCCC)(COC(=O)CCCC)COC(=O)CCCC [pentaerythritol tetrapentanoate]
Settings	mass density [kg/m3]
11059 kPa	1033.4
11099 kPa	1033.5
11132 kPa	1033.6
11173 kPa	1033.5
11207 kPa	1033.7
11241 kPa	1033.5
11283 kPa	1033.7
11318 kPa	1033.6
11354 kPa	1033.6
11389 kPa	1033.7
11432 kPa	1033.7
11468 kPa	1033.7
11505 kPa	1033.8
11549 kPa	1033.8
11586 kPa	1033.7
11623 kPa	1033.9
11661 kPa	1033.8
11706 kPa	1034
11743 kPa	1033.8
11782 kPa	1033.9
11828 kPa	1034
11867 kPa	1033.9
11906 kPa	1033.9
11992 kPa	1034.1
12032 kPa	1034
12080 kPa	1034.1
12120 kPa	1034.1
12161 kPa	1034.1
12211 kPa	1034.3
12253 kPa	1034.1
12295 kPa	1034
12348 kPa	1034.2
12392 kPa	1034.2
12436 kPa	1034.2
12474 kPa	1034.3
12515 kPa	1034.4
12549 kPa	1034.3
12589 kPa	1034.4
12624 kPa	1034.4
12659 kPa	1034.5
12695 kPa	1034.5
12739 kPa	1034.4
12775 kPa	1034.3
12815 kPa	1034.6
12841 kPa	1034.5
12867 kPa	1034.5
12897 kPa	1034.5
12922 kPa	1034.5
12949 kPa	1034.5
12974 kPa	1034.6
13005 kPa	1034.5
13031 kPa	1034.6
13058 kPa	1034.5
13089 kPa	1034.5
13115 kPa	1034.7
13142 kPa	1034.6
13174 kPa	1034.6
13203 kPa	1034.7
13230 kPa	1034.9
13257 kPa	1034.7
13285 kPa	1034.8
13317 kPa	1034.8
13344 kPa	1034.8
13377 kPa	1034.8
13404 kPa	1034.8
13432 kPa	1034.8
13460 kPa	1034.9
13493 kPa	1034.9
13521 kPa	1034.9
13551 kPa	1034.9
13580 kPa	1035
13615 kPa	1034.9
13643 kPa	1034.9
13672 kPa	1035.1
13701 kPa	1035
13736 kPa	1035
13764 kPa	1035.1
13794 kPa	1035
13829 kPa	1035.1
13858 kPa	1035.1
13893 kPa	1035.1
13923 kPa	1035.1
13954 kPa	1035.2
13984 kPa	1035.2
14021 kPa	1035.1
14051 kPa	1035.3
14082 kPa	1035.2
14118 kPa	1035.2
14148 kPa	1035.3
14186 kPa	1035.3
14216 kPa	1035.4
14248 kPa	1035.3
14279 kPa	1035.4
14317 kPa	1035.3
14348 kPa	1035.4
14380 kPa	1035.4
14419 kPa	1035.5
14451 kPa	1035.4
14490 kPa	1035.4
14522 kPa	1035.5
14555 kPa	1035.4
14588 kPa	1035.5
14628 kPa	1035.4
14660 kPa	1035.5
14694 kPa	1035.6
14735 kPa	1035.6
14768 kPa	1035.7
14808 kPa	1035.6
14842 kPa	1035.6
14877 kPa	1035.7
14912 kPa	1035.6
14954 kPa	1035.8
14989 kPa	1035.5
15024 kPa	1035.7
15066 kPa	1035.6
15101 kPa	1035.7
15137 kPa	1035.8
15180 kPa	1035.8
15216 kPa	1035.8
15252 kPa	1035.9
15295 kPa	1036
15333 kPa	1035.8
15369 kPa	1036
15414 kPa	1036.1
15451 kPa	1036
15488 kPa	1036
15525 kPa	1036
15571 kPa	1036
15609 kPa	1036.1
15648 kPa	1036
15694 kPa	1036.2
15732 kPa	1036.1
15772 kPa	1036.1
15819 kPa	1036.1
15859 kPa	1036.1
15899 kPa	1036.2
15938 kPa	1036.2
15986 kPa	1036.2
16026 kPa	1036.4
16067 kPa	1036.3
16116 kPa	1036.3
16157 kPa	1036.3
16199 kPa	1036.4
16241 kPa	1036.4
16291 kPa	1036.5
16333 kPa	1036.4
16376 kPa	1036.5
16421 kPa	1036.5
16472 kPa	1036.6
16515 kPa	1036.6
16559 kPa	1036.5
16611 kPa	1036.4
16655 kPa	1036.6
16699 kPa	1036.7
16753 kPa	1036.8
16798 kPa	1036.7
16844 kPa	1036.7
16900 kPa	1036.7
16949 kPa	1036.8
17000 kPa	1036.7
17050 kPa	1036.9
